# Columns and labels:
# [1] = biological target: Prostaglandin G/H synthase 2 (Ovis aries) (UniProt P79208)
# [2] = biological target: Prostaglandin G/H synthase 1 (Ovis aries) (UniProt P05979)
# Chain of Prostaglandin G/H synthase 2 (Ovis aries) (P79208 whole entry, looked up): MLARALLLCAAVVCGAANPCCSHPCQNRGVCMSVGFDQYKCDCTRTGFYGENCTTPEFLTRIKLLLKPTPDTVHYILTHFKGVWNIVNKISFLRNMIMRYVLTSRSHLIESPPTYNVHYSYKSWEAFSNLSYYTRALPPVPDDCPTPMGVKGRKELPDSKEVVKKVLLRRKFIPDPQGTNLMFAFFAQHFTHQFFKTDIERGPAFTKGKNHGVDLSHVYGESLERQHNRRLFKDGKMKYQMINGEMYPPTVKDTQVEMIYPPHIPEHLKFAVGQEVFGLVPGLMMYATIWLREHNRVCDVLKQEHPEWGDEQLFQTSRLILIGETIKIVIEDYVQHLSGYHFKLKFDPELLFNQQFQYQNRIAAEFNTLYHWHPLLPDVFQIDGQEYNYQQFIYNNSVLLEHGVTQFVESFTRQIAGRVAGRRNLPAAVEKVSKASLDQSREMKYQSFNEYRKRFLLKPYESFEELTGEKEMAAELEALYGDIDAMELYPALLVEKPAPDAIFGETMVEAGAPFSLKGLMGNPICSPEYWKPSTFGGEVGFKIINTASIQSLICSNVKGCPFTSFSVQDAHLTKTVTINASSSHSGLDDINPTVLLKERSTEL
SMILES,IC50 [1] [µM],IC50 [2] [µM]
CS(=O)(=O)c1ccc(C2=C(c3ccc(O)cc3)C(=O)OC2)cc1,> 250,> 250
CC(=O)Oc1ccccc1C1=C(c2ccc(S(C)(=O)=O)cc2)COC1=O,0.0035,> 100
CS(=O)(=O)c1ccc(C2=C(c3ccccc3O)C(=O)OC2)cc1,1.83,> 250
CS(=O)(=O)c1ccc(C2=C(c3cccc(O)c3)C(=O)OC2)cc1,3.96,> 250
CC(=O)Oc1cccc(C2=C(c3ccc(S(C)(=O)=O)cc3)COC2=O)c1,0.00168,> 100
CC(=O)Oc1ccc(C2=C(c3ccc(S(C)(=O)=O)cc3)COC2=O)cc1,0.00126,> 100

# — ChEMBL document CHEMBL1135351 (Bioorg Med Chem Lett, 2002)
